From patent US11596656B2, “Stem cell-produced microvesicles for treating tendon pathologies” (ALBERT EINSTEIN COLLEGE OF MEDICINE, priority 2016, dated 2023)
Counter-ions that a name gives are not always drawn.

What was measured:
[1] = test system: MSCs grown on silk scaffolds; experiment: Rho/Rock pathway and stress fiber disruption in MSCs grown on silk scaffolds; type: cell-based; conditions: treatment for 24 h
From the text: FIG. 6A-6C. Disruption of Rho/Rock Pathway signaling and stress fiber formation are required for tendon lineage determination. (6A) Immunocytochemistry of P-actin in MSCs grown either with no treatment or treated with Latrunculin A, Y-27632 and Blebbistatin for 7 days (blue=DAPI, green=P-actin). *P<0.05 for all treatments. (6B) mRNA expression and protein expression of Sex and mRNA expression of (6C) Coll al and Nfatc4 Nst in MSCs grown on silk scaffolds following treatment with Latrunculin A (LatA), Y-27632 (Y) and Blebbistatin (Bleb) for 24 h. Data represent three independent experiments per assay.
4. Disruption of stress fiber formation by blocking Rho/Rock Pathway signaling abolished silk scaffold induced MSCs tendon lineage differentiation. To determine the role of stress fibers in mediating silk fiber-induced MSC tenogenic differentiation, the impact of cell signaling on the regulation of stress fiber formation was examined.
Compared to untreated cells, cells that were exposed to the above treatment conditions lost their elongated phenotype (FIG. 6A). […] Therefore, the expression of Nfatc4 and Collal following treatment with Latrunculin A, Y-27632, and blebbistatin was also examined.

[2] = test system: MSCs grown on silk scaffolds; experiment: effect of cytochalasin D on silk-fiber induced MSC teno-differentiation; type: cell-based
From the text: FIG. 5A-5I. Cytochalasin D disrupted actin cytoskeletal arrangement in cells attached to scaffold fibers and abolished the elongated cell body [(5A) vs (5B)] and associated nuclear shape change [(5C) vs (5D)]. […] (5G) Relative mRNA and (5H) western blot of Sex and Tnmd expression with (i) relative mRNA expression of the housekeeping genes Hrptl and Pgkl as an internal control. Data represent at least three independent experiments per assay. *P<0.05 compared to MSCs seeded on a scaffold without cytochalasin D. Scale bar=25 μm.
3. Actin polymerization is required for scaffold induced stem cell elongation and expression of tenogenesis markers Sex and Tnmd. To determine the role of cytoskeletal organization in the differentiation of MSCs into tenocytes when MSCs are grown on silk, the effect of cytochalasin D, which inhibits actin polymerization by capping the barbed ends of F-actin polymers was examined on silk-fiber induced MSC teno-differentiation. Differences in cell shape and cell nuclei were quantified by measuring the lengths of the cells that were growing in parallel with the fibers and were compared to the maximal widths of the cells, which were measured perpendicular to the fibers. […] Significant differences were found when quantifying the cytoplasmic (P<0.05) and nuclear (P<0.05) ratios (Fig. SE).
To determine whether actin polymerization in elongated cells is required for tenogenic differentiation, the effect of cytochalasin D was examined on tenogenic marker gene and protein expression in MSCs that were grown on silk scaffolds for 7 days. […] To determine whether the loss of Sex and Tnmd expression was due to specific effects produced by cytochalasin D on actin polymerization and cell morphology, rather than due to general toxicity related to gene expression, the expression levels of two housekeeping genes, Hypoxanthine-guanine phosphoribosyltransferase
1 (Hprtl) and phosphoglycerate kinase 1 (Pgkl), were analyzed.

[3] = MSCs grown on silk scaffolds for 7 days, compared to untreated controls
[4] = check for general toxicity related to gene expression
[5] = compared to untreated MSCs, P<0.05

| Compound | expression level of Coll al [1] | expression level of Nfatc4 [1] | expression level of SCX proteins [1] | expression level of Sex mRNAs [1] | Sex expression (immunocytochemistry, real-time PCR, western blot) [2, 3] | Tnmd expression (immunocytochemistry, real-time PCR, western blot) [2, 3] | elongated phenotype of the cells [2, 3] | expression level of housekeeping gene Hprtl [2, 4] | expression level of housekeeping gene Pgkl [2, 4] | length-to-width ratio of cytoplasm [2, 5] | length-to-width ratio of nuclei [2, 5] |
| --- | --- | --- | --- | --- | --- | --- | --- | --- | --- | --- | --- |
| C/C1=C/C(=O)O[C@@H]2C[C@@H](CC[C@H](C)/C=C\C=C\CC1)O[C@@](O)([C@@H]1CSC(=O)N1)C2 [Latrunculin A] | significantly decreased | significantly decreased | significantly decreased | significantly decreased | – | – | – | – | – | – | – |
| C[C@@H](N)[C@H]1CC[C@H](C(=O)Nc2ccncc2)CC1 [Y-27632, Y-27632 dihydrochloride] | significantly decreased | significantly decreased | significantly decreased | significantly decreased | – | – | – | – | – | – | – |
| Cc1ccc2c(c1)C(=O)C1(O)CCN(c3ccccc3)C1=N2 (stereo not shown) [blebbistatin] | significantly decreased | significantly decreased | significantly decreased | significantly decreased | – | – | – | – | – | – | – |
| C=C1[C@@H](C)[C@H]2[C@H](Cc3ccccc3)NC(=O)[C@]23[C@H](OC(C)=O)/C=C/[C@@](C)(O)C(=O)[C@@H](C)C/C=C/[C@H]3[C@@H]1O [cytochalasin D] | – | – | – | – | loss | loss | abolished | remained unchanged | remained unchanged | smaller | smaller |
